Legend:
[1] = molecular target: T1, Serine/threonine-protein kinase ULK1 (Homo sapiens, UniProt O75385); assay: Inhibition of ATG13 binding to full-length ULK1 (unknown origin) expressed in HEK293T cells preincubated for 15 mins followed by human C-terminal FLAG-tagged ATG13 addition measured after 30 mins by Alphascreen assay; type: cell-based
T1 sequence (O75385 whole entry): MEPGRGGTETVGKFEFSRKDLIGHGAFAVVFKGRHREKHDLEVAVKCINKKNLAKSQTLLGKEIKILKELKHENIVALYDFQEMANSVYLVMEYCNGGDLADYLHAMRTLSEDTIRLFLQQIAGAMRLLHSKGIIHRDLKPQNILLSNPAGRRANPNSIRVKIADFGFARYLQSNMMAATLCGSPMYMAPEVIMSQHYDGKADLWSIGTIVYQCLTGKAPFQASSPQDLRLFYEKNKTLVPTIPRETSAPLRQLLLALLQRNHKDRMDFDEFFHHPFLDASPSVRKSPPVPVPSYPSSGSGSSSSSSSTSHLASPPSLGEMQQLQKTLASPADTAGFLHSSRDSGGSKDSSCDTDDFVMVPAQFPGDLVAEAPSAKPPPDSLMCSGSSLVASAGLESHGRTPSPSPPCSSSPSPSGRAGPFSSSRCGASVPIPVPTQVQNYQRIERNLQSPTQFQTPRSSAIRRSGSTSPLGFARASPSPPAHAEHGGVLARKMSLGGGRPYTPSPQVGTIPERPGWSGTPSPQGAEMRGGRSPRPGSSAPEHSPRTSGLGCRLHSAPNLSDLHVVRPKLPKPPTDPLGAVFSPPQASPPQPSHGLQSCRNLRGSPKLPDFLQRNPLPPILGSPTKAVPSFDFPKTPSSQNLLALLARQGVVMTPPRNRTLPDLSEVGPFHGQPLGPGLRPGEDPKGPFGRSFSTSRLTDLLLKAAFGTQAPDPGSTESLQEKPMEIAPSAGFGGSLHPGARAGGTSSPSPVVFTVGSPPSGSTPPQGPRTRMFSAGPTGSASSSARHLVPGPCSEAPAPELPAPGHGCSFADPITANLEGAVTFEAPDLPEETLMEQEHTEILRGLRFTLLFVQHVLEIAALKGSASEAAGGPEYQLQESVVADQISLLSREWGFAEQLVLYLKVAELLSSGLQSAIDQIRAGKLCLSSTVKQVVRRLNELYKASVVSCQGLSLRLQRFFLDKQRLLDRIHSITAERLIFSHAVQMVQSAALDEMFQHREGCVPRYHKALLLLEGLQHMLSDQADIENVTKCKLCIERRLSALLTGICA

[2] = molecular target: T2, Cytochrome P450 1A2 (Homo sapiens, UniProt P05177); assay: Inhibition of CYP1A2 (unknown origin) at 10 uM; type: ADME
T2 sequence (P05177 whole entry): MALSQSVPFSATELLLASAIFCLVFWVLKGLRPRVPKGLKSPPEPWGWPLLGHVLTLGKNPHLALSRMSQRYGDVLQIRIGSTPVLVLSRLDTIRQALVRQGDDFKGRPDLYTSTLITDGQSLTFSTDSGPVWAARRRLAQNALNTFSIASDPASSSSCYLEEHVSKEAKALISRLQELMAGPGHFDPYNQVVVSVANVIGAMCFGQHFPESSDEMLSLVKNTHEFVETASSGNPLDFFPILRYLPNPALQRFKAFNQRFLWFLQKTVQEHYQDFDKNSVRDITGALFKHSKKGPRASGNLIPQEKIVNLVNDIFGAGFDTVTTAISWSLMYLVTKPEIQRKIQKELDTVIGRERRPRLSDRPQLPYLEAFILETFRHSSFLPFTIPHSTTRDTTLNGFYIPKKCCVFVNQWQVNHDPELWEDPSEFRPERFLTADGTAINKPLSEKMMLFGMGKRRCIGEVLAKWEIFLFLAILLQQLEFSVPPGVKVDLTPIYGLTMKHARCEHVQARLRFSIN

[3] = Stability in mouse microsomes; type: ADME, Microsome
[4] = Stability in human microsomes; type: ADME, Microsome
[5] = molecular target: Cytochrome P450 2D6 (Homo sapiens, UniProt P10635); assay: Inhibition of CYP2D6 (unknown origin) at 10 uM; type: ADME
Cytochrome P450 2D6, sequence (P10635 whole entry): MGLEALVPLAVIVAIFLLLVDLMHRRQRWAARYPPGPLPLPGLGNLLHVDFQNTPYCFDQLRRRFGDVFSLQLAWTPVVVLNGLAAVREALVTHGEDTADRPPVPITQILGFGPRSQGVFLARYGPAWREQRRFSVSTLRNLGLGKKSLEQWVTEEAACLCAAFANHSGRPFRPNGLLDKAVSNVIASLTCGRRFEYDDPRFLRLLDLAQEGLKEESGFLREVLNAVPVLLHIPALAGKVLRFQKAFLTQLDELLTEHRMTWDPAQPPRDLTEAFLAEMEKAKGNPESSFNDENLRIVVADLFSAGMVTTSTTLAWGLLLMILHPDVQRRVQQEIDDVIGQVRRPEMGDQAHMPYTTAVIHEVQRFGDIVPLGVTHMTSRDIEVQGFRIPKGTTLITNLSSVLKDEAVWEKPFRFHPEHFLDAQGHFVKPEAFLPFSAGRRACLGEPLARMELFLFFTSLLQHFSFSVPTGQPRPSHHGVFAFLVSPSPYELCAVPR

[6] = molecular target: Cytochrome P450 3A4 (Homo sapiens, UniProt P08684); assay: Inhibition of CYP3A4 (unknown origin) at 10 uM; type: ADME
Cytochrome P450 3A4, sequence (P08684 whole entry): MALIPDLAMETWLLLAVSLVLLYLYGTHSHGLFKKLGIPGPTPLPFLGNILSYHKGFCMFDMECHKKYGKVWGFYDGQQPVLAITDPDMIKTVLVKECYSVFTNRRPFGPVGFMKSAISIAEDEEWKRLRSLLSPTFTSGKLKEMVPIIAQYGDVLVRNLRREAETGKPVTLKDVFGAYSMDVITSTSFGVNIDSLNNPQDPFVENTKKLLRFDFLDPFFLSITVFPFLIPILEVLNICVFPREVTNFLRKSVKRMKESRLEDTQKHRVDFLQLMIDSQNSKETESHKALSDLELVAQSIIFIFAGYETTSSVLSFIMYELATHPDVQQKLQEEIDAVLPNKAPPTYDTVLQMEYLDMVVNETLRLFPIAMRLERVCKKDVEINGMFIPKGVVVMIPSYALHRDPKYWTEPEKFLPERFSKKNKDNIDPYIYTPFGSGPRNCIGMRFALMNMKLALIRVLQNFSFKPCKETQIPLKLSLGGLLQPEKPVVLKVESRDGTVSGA

[7] = Stability in rat microsomes; type: ADME, Microsome
[8] = molecular target: Cytochrome P450 2C9 (Homo sapiens, UniProt P11712); assay: Inhibition of CYP2C9 (unknown origin) at 10 uM; type: ADME
Cytochrome P450 2C9, sequence (P11712 whole entry): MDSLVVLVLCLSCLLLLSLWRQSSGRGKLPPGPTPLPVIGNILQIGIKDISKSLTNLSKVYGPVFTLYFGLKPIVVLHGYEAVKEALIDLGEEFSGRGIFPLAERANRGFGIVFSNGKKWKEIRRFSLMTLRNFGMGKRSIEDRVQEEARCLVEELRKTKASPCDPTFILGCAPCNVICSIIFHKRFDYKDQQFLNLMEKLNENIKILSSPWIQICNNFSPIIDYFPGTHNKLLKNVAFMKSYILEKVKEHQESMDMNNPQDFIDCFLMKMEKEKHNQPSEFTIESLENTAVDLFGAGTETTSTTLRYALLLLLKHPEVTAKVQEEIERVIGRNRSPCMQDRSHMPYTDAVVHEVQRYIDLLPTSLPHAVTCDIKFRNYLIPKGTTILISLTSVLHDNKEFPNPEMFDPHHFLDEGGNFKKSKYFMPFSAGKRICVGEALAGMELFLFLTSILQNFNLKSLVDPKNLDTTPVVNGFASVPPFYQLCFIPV

[9] = Half life in human microsomes; type: ADME, Microsome

COc1ccc(CNc2n[nH]c3ccc(NC(=O)C4CCCC(N)C4)cc23)cc1 (stereo unspecified)
IC50 [1]: 477 nM

NC1CCCC(C(=O)Nc2ccc3[nH]nc(Nc4ccnc5ccccc45)c3c2)C1 (stereo unspecified)
IC50 [1]: 239 nM

NC1CCCC(C(=O)Nc2ccc3[nH]nc(NC(=O)c4ccccc4)c3c2)C1 (stereo unspecified)
IC50 [1]: 242 nM

Nc1n[nH]c2ccc(NC(=O)[C@H]3CC[C@H](N)CC3)cc12
IC50 [1]: 14000 nM

O=C(Nc1ccc2[nH]nc(Nc3cccc4ccccc34)c2c1)C1CCOCC1
IC50 [1]: 1830 nM

O=C(Nc1ccc2[nH]nc(Nc3cccc4ccccc34)c2c1)C1CCNCC1
IC50 [1]: 315 nM | inhibition (INH) [2]: Not Active | Stability [3]: Stable | Stability [4]: Stable | inhibition (INH) [5]: Not Active | inhibition (INH) [6]: Not Active | Stability [7]: Stable | inhibition (INH) [8]: Not Active

NC1CCCC(C(=O)Nc2ccc3[nH]nc(Nc4cccc(C(F)(F)F)c4)c3c2)C1 (stereo unspecified)
IC50 [1]: 288 nM

NCCCC(=O)Nc1ccc2[nH]nc(N)c2c1
IC50 [1]: > 33000 nM

Nc1cccc(C(=O)Nc2ccc3[nH]nc(N)c3c2)c1
IC50 [1]: 18100 nM

COc1ccccc1Nc1n[nH]c2ccc(NC(=O)C3CCCC(N)C3)cc12 (stereo unspecified)
IC50 [1]: 110 nM | inhibition (INH) [2]: Not Active | Stability [3]: Stable | Stability [4]: Stable | inhibition (INH) [5]: Not Active | inhibition (INH) [6]: Not Active | Stability [7]: Stable | inhibition (INH) [8]: Not Active

COC(=O)c1cccc(Nc2n[nH]c3ccc(NC(=O)C4CCCC(N)C4)cc23)c1 (stereo unspecified)
IC50 [1]: 183 nM

Nc1n[nH]c2ccc(NC(=O)[C@H]3CC[C@@H](N)CC3)cc12
IC50 [1]: 1490 nM

N[C@H]1CCC[C@@H](C(=O)Nc2ccc3[nH]nc(Nc4cccc5ccccc45)c3c2)C1
inhibition (INH) [2]: Not Active | half-life [9]: 3.73 h | inhibition (INH) [5]: Not Active | inhibition (INH) [6]: Not Active | inhibition (INH) [8]: Not Active

NC1CCCC(C(=O)Nc2ccc3[nH]nc(Nc4ccccc4)c3c2)C1 (stereo unspecified)
IC50 [1]: 2730 nM

O=C(Nc1ccc2[nH]nc(Nc3cccc4ccccc34)c2c1)C1CCN1 (stereo unspecified)
IC50 [1]: 4940 nM

Nc1n[nH]c2ccc(NC(=O)C3CCNCC3)cc12
IC50 [1]: 560 nM

CN(C)C1CCCC(C(=O)Nc2ccc3[nH]nc(Nc4cccc5ccccc45)c3c2)C1 (stereo unspecified)
IC50 [1]: 4230 nM

NC1CCCC(C(=O)Nc2ccc3[nH]nc(Nc4ccc(Br)cc4)c3c2)C1 (stereo unspecified)
IC50 [1]: 416 nM

NC1CCCC(C(=O)Nc2ccc3[nH]nc(Nc4cccc5cnccc45)c3c2)C1 (stereo unspecified)
IC50 [1]: 40 nM

NC1CCCC(C(=O)Nc2ccc3[nH]nc(Nc4cccc5ccccc45)c3c2)C1 (mixture of isomers)
inhibition (INH) [2]: Not Active | Stability [3]: Stable | Stability [4]: Stable | inhibition (INH) [5]: Not Active | inhibition (INH) [6]: Not Active | Stability [7]: Stable | inhibition (INH) [8]: Not Active

Nc1n[nH]c2ccc(NC(=O)C3CCCNC3)cc12 (racemic)
IC50 [1]: 670 nM

Nc1n[nH]c2ccc(NC(=O)C3CCCCN3)cc12 (racemic)
IC50 [1]: 840 nM
